Patent US5081152A, “Azulene derivatives as thromboxane A2 and prostaglandin endoperoxide receptor antagonist” (Kotobuki Seiyaku Co., Ltd., priority 1989, dated 1992)
Structures can show the parent of a compound that is named as a salt.

Target: T1, Thromboxane A2 receptor (Rattus norvegicus, UniProt P34978)
T1 sequence (P34978 1-341): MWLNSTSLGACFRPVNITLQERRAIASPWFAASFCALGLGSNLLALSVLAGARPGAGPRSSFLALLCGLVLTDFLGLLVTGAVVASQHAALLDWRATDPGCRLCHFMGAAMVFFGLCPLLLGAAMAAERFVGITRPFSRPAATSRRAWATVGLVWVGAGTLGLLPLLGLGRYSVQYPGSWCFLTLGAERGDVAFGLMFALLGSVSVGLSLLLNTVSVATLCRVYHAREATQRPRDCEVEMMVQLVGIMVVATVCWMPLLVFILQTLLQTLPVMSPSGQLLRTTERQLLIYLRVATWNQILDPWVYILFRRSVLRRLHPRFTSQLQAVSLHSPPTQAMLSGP
Test: Thromboxane A2 receptor antagonistic action (inhibitory action of U-46619-induced contractions of rat aortic strips)
Assay type: cell-based
Conditions: isolated helical strips of rat aorta precontracted with 3×10^-8 M U-46619; read-out: IC50 (the concentrations which inhibited the contraction by 50%)

IC50 [nM]	SMILES
12	CC(C)c1ccc2c(CCCCNS(=O)(=O)c3ccc(C(F)(F)F)cc3)cc(C(=O)O)c-2cc1 [Compound 31, 6-Isopropyl-3-[4-(4-trifluoromethylbenzenesulfonylamino)butyl]-azulene-1-carboxylic acid]
13	CC(C)c1ccc2c(CCCCNS(=O)(=O)c3ccc([N+](=O)[O-])cc3)cc(C(=O)O)c-2cc1 [Compound 32, 6-Isopropyl-3-[4-(4-nitrobenzenesulfonylamino)butyl]-azulene-1-carboxylic acid]
300	CC(C)c1ccc2c(CCCCNS(=O)(=O)c3ccccc3)cc(CC(=O)O)c-2cc1 [Compound 33, 2-[6-Isopropyl-3-[4-(benzenesulfonylamino)butyl]-azulene-1-yl]-acetic acid]
2400	CC(C)c1ccc2c(C=CC(=O)O)cc(CCCCNS(=O)(=O)c3ccccc3)c-2cc1 [Compound 36, 3-[6-Isopropyl-3-[4-(benzenesulfonylamino)butyl]-azulene-1-yl]-2-propenoicacid]
10000	CC(C)c1ccc2c(CCCCN(C)S(=O)(=O)c3ccccc3)cc(C(=O)O)c-2cc1 [Compound 37, 6-Isopropyl-3-[4-(N-methylbenzenesulfonylamino)butyl]-azulene-1-carboxylicacid]
4400	CC(C)c1ccc2c(CCCCNC(=O)c3ccccc3)cc(C(=O)O)c-2cc1 [Compound 41, 6-Isopropyl-3-[4-(benzoylamino)butyl]-azulene-1-carboxylic acid]
4.4	CC(C)c1ccc2c(CCCCNS(=O)(=O)c3ccc(F)cc3)cc(S(=O)(=O)O)c-2cc1 [Compound 47, 6-Isopropyl-3-[4-(P-fluorobenzenesulfonylamino)butyl]-azulene-1-sulfonic acid sodium salt]
1.7	CC(C)c1ccc2c(CCCCNS(=O)(=O)c3ccc(Cl)cc3)cc(S(=O)(=O)O)c-2cc1 [Compound 48, 6-Isopropyl-3-[4-(P-chlorobenzenesulfonylamino)butyl]-azulene-1-sulfonic acid sodium salt]
15	CC(C)c1ccc2c(CCCCNS(=O)(=O)c3ccc(Cl)c(Cl)c3)cc(S(=O)(=O)O)c-2cc1 [Compound 49, 6-Isopropyl-3-[4-(3,4-dichlorobenzenesulfonylamino)butyl-azulene-1-sulfonic acid sodium salt]
1.7	CC(C)c1ccc2c(CCCCNS(=O)(=O)c3ccc(Br)cc3)cc(S(=O)(=O)O)c-2cc1 [Compound 50, 6-Isopropyl-3-[4-(P-bromobenzenesulfonylamino)butyl]-azulene-1-sulfonic ac id sodium salt]
1.6	CC(C)c1ccc2c(CCCCNS(=O)(=O)c3ccc(I)cc3)cc(S(=O)(=O)O)c-2cc1 [Compound 51, 6-Isopropyl-3-[4-(P-iodobenzenesulfonylamino)butyl]-azulene-1-sulfonicacid sodium salt]
210	CC(C)c1ccc2c(C(=O)O)cc([C@H](C)CCCNS(=O)(=O)c3ccccc3)c-2cc1 [Compound 54, 6-isopropyl-3-[(1R)-methyl-4-(benzenesulfonylamino)butyl]-azulene-1-carbolxylic acid]
44	CC(C)c1ccc2c(C(=O)O)cc([C@@H](C)CCCNS(=O)(=O)c3ccccc3)c-2cc1 [Compound 55, 6-isopropyl-3-[(1S)-methyl-4-(benzenesulfonylamino)butyl]-azulene-1-carboxylic acid]
160	CC(C)c1ccc2c(C[C@H](C)CCNS(=O)(=O)c3ccccc3)cc(C(=O)O)c-2cc1 [Compound 56, 6-isopropyl-3-[(2S)-methyl-4-(benzenesulfonylamino)butyl]-azulene-1-carboxylic acid]
36	CC(C)c1ccc2c(C[C@@H](C)CCNS(=O)(=O)c3ccccc3)cc(C(=O)O)c-2cc1 [Compound 57, 6-isopropyl-3-[(2R)-methyl-4-(benzenesulfonylamino)butyl]-azulene-1-carboxylic acid]
35	CC(C)c1ccc2c(CC[C@@H](C)CNS(=O)(=O)c3ccccc3)cc(C(=O)O)c-2cc1 [Compound 58, 6-isopropyl-3-[(3R)-methyl-4-(benzenesulfonylamino)butyl]-azulene-1-carboxylic acid]
16	CC(C)c1ccc2c(CC[C@H](C)CNS(=O)(=O)c3ccccc3)cc(C(=O)O)c-2cc1 [Compound 59, 6-isopropyl-3-[(3S)-methyl-4-(benzenesulfonylamino)butyl]-azulene-1-carboxylic acid]
50	CC(C)c1ccc2c(CCC[C@H](C)NS(=O)(=O)c3ccccc3)cc(C(=O)O)c-2cc1 [Compound 62, 6-isopropyl-3-[(4S)-(benzenesulfonylamino)pentyl]-azulene-1-carboxylicacid]
420	CC(C)c1ccc2c(CCC[C@@H](C)NS(=O)(=O)c3ccccc3)cc(C(=O)O)c-2cc1 [Compound 63, 6-isopropyl-3-[(4R)-(benzenesulfonylamino)pentyl]-azulene-1-carboxylicacid]
690	CC(C)c1ccc2c(CC(C)(C)CCNS(=O)(=O)c3ccccc3)cc(C(=O)O)c-2cc1 [Compound 64, 6-isopropyl-3-[2,2-dimethyl-4-(benzenesulfonylamino)butyl]-azulene-1-carboxylic acid]
50	CC(C)c1ccc2c(CCC(C)(C)CNS(=O)(=O)c3ccccc3)cc(C(=O)O)c-2cc1 [Compound 65, 6-isopropyl-3-[3,3-dimethyl-4-(benzenesulfonylamino)butyl]-azulene-1-carboxylic acid]
52	CC(C)c1ccc2c(C/C=C\CNS(=O)(=O)c3ccccc3)cc(C(=O)O)c-2cc1 [Compound 68, 6-isopropyl-3-[4-(benzenesulfonylamino)-cis-2-butenyl]-azulene-1-carboxylic acid]
460	CC(C)c1ccc2c(C/C=C/CNS(=O)(=O)c3ccccc3)cc(C(=O)O)c-2cc1 [Compound 69, 6-isopropyl-3-[4-(benzenesulfonylamino)-trans-2-butenyl]-azulene-1-carboxylic acid]
17	CC(C)c1ccc2c(CCCCNS(=O)(=O)c3ccccc3)cc(S(=O)(=O)O)c-2cc1 [sodium salt]
